Measurements: patent US20170010280A1, “GDF15 AS BIOMARKER FOR DIAGNOSING MITOCHONDRIAL DISEASES” (TOKYO METROPOLITAN GERIATRIC HOSPITAL AND INSTITUTE OF …, priority 2014, published 2017)
Where two headings read alike, the source gives them in different places.

Experiments:
[1] = system: 2SA cells (control cell); conditions: high concentration, non-patent document 1; cited from earlier work
[2] = system: 2SD cells; assay: ELISA of GDF15 concentration in culture medium; assay type: cell-based, human; conditions: 10 mM lactate, medium cultured 24 h
Method: Cells were placed on 60-mm dishes 1 day before replacing the medium with fresh medium. Conditioned medium cultured for 24 h was collected, and the particulates were removed by centrifugation (at 500×g for 10 min, at 10,000×g for 30 min). The GDF15 and INHBE concentrations in the supernatants and in the sera of patients were determined in duplicate by using a Human GDF-15 Immunoassay (DGD150, R&D Systems, Minneapolis, Minn., USA) and enzyme-linked immunosorbent assay kit for Inhibin Beta E (E90048Hu, Uscn Life Science, Wuhan, Hubei, PRC) according to the manufacturer's instructions. For measuring IL1A and other cytokine concentrations, the sera were subjected to a multiplex suspension array, Bio Plex Pro Human Cytokine Grp II Panel 21-Plex (MF0-005KMII, Bio-Rad, Hercules, Calif., USA). The cytokines measured by use of this array were the following: IL-2Rα, IL-3, IL-12 (p40), IL-16, IL-18, CTACK, GRO-α, HGF, IFN-α2, LIF, MCP-3, M-CSF, MIF, MIG, β-NGF, SCF, SCGF-β, SDF-1α, TNF-β, and TRAIL.
(v) The concentrations of three secreted proteins as candidate biomarkers in cell culture were measured by ELISA and multiplex suspension arrays. […] Other secreted proteins could not be measured under the detection limit.

[3] = system: 2SD cells; conditions: 10 mM, 4 hours after treatment, non-patent document 1; cited from earlier work
[4] = system: 2SD cells; assay: quantitative RT-PCR of GDF15, INHBE and IL1A expression; assay type: cell-based, human; conditions: 10 mM, 4 and 8 hours after treatment
Method: Total RNA was isolated from cells with miRNeasy-minikit (Qiagen), and reverse transcribed to cDNA with a High Capacity cDNA Reverse Transcription Kit (Life Technologies, Carlsbad, Calif., USA) used according to the manufacturer's protocols. Real-time PCR was performed on the StepOnePlus Real-Time PCR System (Life Technologies) using Power SYBR Green PCR Master Mix. 18S rRNA gene was used as an internal control for normalization. The sequences of primers are listed in Table 1(The numbers in the sequence listing, SEQ ID NO: 1 to 1 stage left, SEQ ID NO: 2 to the right sequentially subjected to SEQ ID NO: 8.).
(iv) In order to determine the expression level of GDF15, INHBE and IL1A in cells, quantitative RT-PCRs were performed. The expression level of GDF15, INHBE, and IL1A were increased at 4 and 8 hours after treatment with 10 mM lactate in 2SD cells, otherwise they were not changed after treatment with 10mM pyruvate. The expression level of GDF15 was higher in 2SD cells than in 2SA cells at 0 hour. On the results, the reproducibility of the microarray data were confirmed. GDF15, INHBE, and IL1A were identified as biomarkers for mitochondrial diseases (FIG. 2 to FIG. 4).

[5] = system: 2SD cells (mitochondrial disease model cell); assay: exhaustive gene expression analysis (microarray) after lactate or pyruvate treatment; assay type: cell-based, human
From the text: (i) Cybrid cells established from myoblasts in MELAS (mitochondrial myopathy, encephalopathy, lactic acidosis, and stroke-like episodes), which is relatively high incident among mitochondrial diseases patient and human osteosarcoma 143B cells were used in the experiment. Specifically, myoblast cells from MELAS patients lacking the cell nuclei were fused with human osteosarcoma-derived 143B cells lacking mitochondrial DNA (mtDNA). From some fused cell lines, a cell line without m.3243A>G mutation in mtDNA was used as control cell (2SA) and a cell line with m.3243A>G mutation with 94% was used as mitochondrial disease model cell (2SD) (the mutation ratio is not 100%, because mitochondria is heteroplasmy). Cells were cultured in high-glucose Dulbecco's modified Eagle's medium (DMEM) supplemented with 10% FBS, 1 mM sodium pyruvate, and 0.4 mM uridine at 37° C. under a humidified atmosphere of 5% CO2. Total RNA was isolated from cells by using a miRNeasy mini kit (Qiagen, Venlo, Netherlands). One hundred nanograms of total RNA was labeled and amplified with a low input quick amp labeling kit (Agilent Technologies, Santa Clara, Calif., USA) used according to the manufacturer's instructions. The labeled cRNA was hybridized to the Agilent SurePrint G3 Human GE 8×60K Microarray in a rotating hybridization oven at 10 rpm for 20 h at 65° C. After hybridization, the microarrays were washed according to the manufacturer's instructions and scanned on an Agilent DNA Microarray Scanner with Scan Control software. The resulting images were processed, and raw data were collected by using Agilent Feature Extraction software. Expression data were analyzed by using GeneSpring GX 11 (Agilent Technologies). The signal intensity of each probe was normalized by a percentile shift, in which each value was divided by the 75th percentile of all values in its array. For pairwise comparison analysis, only the probes that had expression flags present under at least one condition were considered. The list was analyzed with Ingenuity Pathways Analysis software (Ingenuity Systems, Redwood, Calif., USA). (i) 2SA cells and 2SD cells were collected at 0, 4, and 8 hours after treatment of 10 mM lactate or 10 mM of pyruvate. After RNA were extracted from these cells, exhaustive gene expression analysis were performed using microarray analysis.

[6] = system: 2SD cells; assay: metabolome analysis of energy metabolism; assay type: cell-based, human; conditions: 10 mM, 4 hours after treatment
Method: (§1) (ii) Metabolome analysis were performed using 2SA cells and 2SD cells. […] The energy metabolism disorder has become remarkable 4 hours after treatment of high concentration of lactic acid (10 mM) in 2SD cells, and the phenomenon was not observed after treatment of high concentration of pyruvic acid (10 mM). The energy metabolism disorder was not observed after treatment of high concentration of lactic acid in 2SA cells. Based on the results, we came up with the forecast that the genes expressed in 2SD cells with energy metabolism disorders in a high concentration of lactic acid may be new biomarkers that reflects the energy metabolic disorder of mitochondrial disease patients.

[7] = system: 2SA cells (control cell); assay: metabolome analysis of energy metabolism; assay type: cell-based, human; conditions: high concentration
Method: as §1

[8] = system: mitochondrial disease patients; assay: sodium pyruvate therapy for mitochondrial disease patients; assay type: in vivo, human; conditions: patients n=10, 0.3 g/kg to 2 g/kg, over seven years
From the text: 4. Study of sodium pyruvate therapy for mitochondrial disease patients For mitochondrial disease patients (n=10), sodium pyruvate (0.3 g/kg to 2 g/kg) had been administered for over seven years. During the period, the transition of
FGF-21 and GDF-15 had been determined and parameters of other therapeutic effects had been investigated. The mitochondrial disease patients contained PDH E1A deficiency, MELAS/cardiomyopathy with A3243G mutation, and MELAS/Leigh syndrome with G13513A mutation in the ND5 gene.

[9] = 10 mM lactate, 8 h vs 0 h after lactate treatment
[10] = lactate vs pyruvate treatment at 8 h

CC(O)C(=O)O (stereo not shown) [lactate, lactic acid]
energy metabolism disorder [1]: not observed
concentration of GDF15 in culture medium [2]: increased
energy metabolism disorder [3]: remarkable
expression level of GDF15 [4]: increased
expression level of IL1A [4]: increased
expression level of INHBE [4]: increased
Fold Change L-8/L-0, ADAMTS17 [5, 9]: 3.5
Fold Change L-8/L-0, ADM2 [5, 9]: 10.3
Fold Change L-8/L-0, AMTN [5, 9]: 5.0
Fold Change L-8/L-0, APOL6 [5, 9]: 6.2
Fold Change L-8/L-0, AREG [5, 9]: 14.0
Fold Change L-8/L-0, C1QTNF1 [5, 9]: 2.6
Fold Change L-8/L-0, C12orf39 [5, 9]: 6.3
Fold Change L-8/L-0, CLEC3B [5, 9]: 2.1
Fold Change L-8/L-0, CXCL1 [5, 9]: −3.4
Fold Change L-8/L-0, DKK1 [5, 9]: −2.1
Fold Change L-8/L-0, ECM2 [5, 9]: 11.8
Fold Change L-8/L-0, GDF15 [5, 9]: 27.4
Fold Change L-8/L-0, HECW2 [5, 9]: 2.4
Fold Change L-8/L-0, IGFALS [5, 9]: 2.3
Fold Change L-8/L-0, IGFBPI [5, 9]: 2.3
Fold Change L-8/L-0, IL1A [5, 9]: 7.6
Fold Change L-8/L-0, IL23A [5, 9]: 4.4
Fold Change L-8/L-0, INHBE [5, 9]: 15.0
Fold Change L-8/L-0, MMP3 [5, 9]: 9.8
Fold Change L-8/L-0, PDGFA [5, 9]: 2.2
Fold Change L-8/L-0, PDGFB [5, 9]: 2.8
Fold Change L-8/L-0, PDZRN3 [5, 9]: −2.4
Fold Change L-8/L-0, SCG5 [5, 9]: 5.2
Fold Change L-8/L-0, SLC39A10 [5, 9]: −2.3
Fold Change L-8/L-0, SPOCK2 [5, 9]: 5.1
Fold Change L-8/L-0, STC2 [5, 9]: 3.4
Fold Change L-8/L-0, VEGFA [5, 9]: 3.4
Fold Change L-8/P-8, ADAMTS17 [5, 10]: 2.2
Fold Change L-8/P-8, ADM2 [5, 10]: 3.0
Fold Change L-8/P-8, AMTN [5, 10]: 3.9
Fold Change L-8/P-8, APOL6 [5, 10]: 3.8
Fold Change L-8/P-8, AREG [5, 10]: 2.2
Fold Change L-8/P-8, C1QTNF1 [5, 10]: 2.9
Fold Change L-8/P-8, C12orf39 [5, 10]: 6.7
Fold Change L-8/P-8, CLEC3B [5, 10]: 2.2
Fold Change L-8/P-8, CXCL1 [5, 10]: −2.6
Fold Change L-8/P-8, DKK1 [5, 10]: −2.3
Fold Change L-8/P-8, ECM2 [5, 10]: 9.0
Fold Change L-8/P-8, GDF15 [5, 10]: 14.8
Fold Change L-8/P-8, HECW2 [5, 10]: 2.1
Fold Change L-8/P-8, IGFALS [5, 10]: 2.5
Fold Change L-8/P-8, IGFBPI [5, 10]: 2.1
Fold Change L-8/P-8, IL1A [5, 10]: 6.0
Fold Change L-8/P-8, IL23A [5, 10]: 2.8
Fold Change L-8/P-8, INHBE [5, 10]: 9.4
Fold Change L-8/P-8, MMP3 [5, 10]: 4.2
Fold Change L-8/P-8, PDGFA [5, 10]: 2.2
Fold Change L-8/P-8, PDGFB [5, 10]: 3.8
Fold Change L-8/P-8, PDZRN3 [5, 10]: −2.0
Fold Change L-8/P-8, SCG5 [5, 10]: 3.0
Fold Change L-8/P-8, SLC39A10 [5, 10]: −2.9
Fold Change L-8/P-8, SPOCK2 [5, 10]: 6.6
Fold Change L-8/P-8, STC2 [5, 10]: 2.6
Fold Change L-8/P-8, VEGFA [5, 10]: 2.5
energy metabolism disorder [6]: remarkable
energy metabolism disorder [7]: not observed

CC(=O)C(=O)O [pyruvate, pyruvic acid]
energy metabolism disorder [3]: not observed
expression level of GDF15 [4]: not changed
expression level of IL1A [4]: not changed
expression level of INHBE [4]: not changed
energy metabolism disorder [6]: not observed

CC(=O)C(=O)[O-].[Na+] [sodium pyruvate]
concentration of GDF-15 [8]: significantly reduced
concentration of alanine [8]: significantly reduced
concentration of lactate [8]: significantly reduced
concentration of pyruvate [8]: significantly reduced
side effects [8]: no side effects were observed
therapeutic effect [8]: highly effective therapy
